In general, Ki refers to a dissociation constant, usually derived from enzyme kinetics or from competition with a known ligand. Read a high Ki as weaker binding. For orientation: pKi means the Ki on a negative log10 scale, so that one unit is a factor of ten.

One test concerns the target Histamine H1 receptor (Homo sapiens, UniProt P35367). Kind of test: biochemical. Type of test: cell-based, HEK-293T.
Test [1] can be described thus: Displacement of [3H]mepyramine from human N-terminal hemagglutinin-tagged histamine H1 receptor I454(7.39)F mutant expressed in HEK293T cells after 4 hrs by microbeta liquid scintillation counting analysis. Type of test: cell-based. The conditions noted are these: hek-293t. Background: Displacement assays read how much labelled ligand stays bound in the presence of the test substance.

A short description of test [2]: Displacement of [3H]mepyramine from human N-terminal hemagglutinin-tagged histamine H1 receptor I454(7.39)T mutant expressed in HEK293T cells after 4 hrs by microbeta liquid scintillation counting analysis. The test is classed as cell-based. The conditions noted are these: hek-293t.

Chain of Histamine H1 receptor (P35367 whole entry): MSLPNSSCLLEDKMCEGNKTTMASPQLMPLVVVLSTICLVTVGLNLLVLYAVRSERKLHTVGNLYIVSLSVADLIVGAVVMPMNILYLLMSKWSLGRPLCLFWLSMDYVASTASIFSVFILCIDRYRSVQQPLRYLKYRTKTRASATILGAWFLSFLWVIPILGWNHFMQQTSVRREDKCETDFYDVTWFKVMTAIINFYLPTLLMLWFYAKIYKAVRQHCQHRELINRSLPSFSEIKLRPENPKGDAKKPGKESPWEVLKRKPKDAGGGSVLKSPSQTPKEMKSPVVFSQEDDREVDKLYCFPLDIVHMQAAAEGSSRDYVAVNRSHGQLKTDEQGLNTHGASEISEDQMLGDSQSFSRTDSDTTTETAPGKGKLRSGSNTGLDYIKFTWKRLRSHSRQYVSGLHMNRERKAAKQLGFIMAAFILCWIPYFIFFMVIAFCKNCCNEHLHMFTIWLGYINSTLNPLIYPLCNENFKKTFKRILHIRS

The compound `c1ccc(Cc2ccccc2OCCCN2CCCC2)cc1` showed a Ki on Histamine H1 receptor of 10 nM.
With `c1ccc(Cc2ccccc2OCCN2CCCCC2)cc1`, at Histamine H1 receptor, the inhibition constant (Ki) is 25.1 nM.
`c1ccc(Cc2ccccc2OCCCN2CCCCC2)cc1` gave a Ki on Histamine H1 receptor of 12.6 nM.
Still for that read-out and setting: to `c1ccc(OC2CCNCC2)cc1` belongs 3980 nM; to `CN1CCC(Oc2ccccc2Cc2ccc(Cl)cc2)CC1`, 2.51 nM.
Turning to `CN1CCC(Oc2ccccc2Cc2ccccc2)CC1.O=C(O)/C=C/C(=O)O`, the figures for the pKi in test [1] and in test [2] were 8.2 and 8.3, respectively.
The compound `Clc1ccc(Cc2ccccc2OC2CCNCC2)cc1` had a Ki on Histamine H1 receptor of 6.31 nM.
The same measure, in the same setting: to `c1ccc(Cc2cccc(OC3CCNCC3)c2)cc1` belongs 1580 nM; to `NCCOc1ccccc1Cc1ccccc1`, 1580 nM; to `c1ccc(-c2ccccc2OC2CCNCC2)cc1`, 316 nM.
Still for that read-out and setting: to `CN(C)CCOc1ccccc1Cc1ccccc1` belongs 12.6 nM; to `c1ccc(Cc2ccccc2OCCN2CCCCCC2)cc1`, 63.1 nM.
Same read-out and setting: to `C[N+]1(C)CCC(Oc2ccccc2Cc2ccccc2)CC1` belongs 25.1 nM; to `CNCCOc1ccccc1Cc1ccccc1`, 100 nM.
Compound `CN(C)CCCOc1ccccc1Cc1ccccc1` showed an inhibition constant (Ki) at Histamine H1 receptor of 3.16 nM.
Consider `c1ccc(Cc2ccccc2OCCN2CCC2)cc1`, for which affinity at Histamine H1 receptor was put at a Ki of 6.31 nM.
On the same count and under the same terms, to `c1ccc(Cc2ccc(OC3CCNCC3)cc2)cc1` belongs 10000 nM; to `CNCCCOc1ccccc1Cc1ccccc1`, 31.6 nM; to `c1ccc(Cc2ccccc2OCCCN2CCCCCC2)cc1`, 20 nM.
For the compound `O=C(O)/C=C/C(=O)O.c1ccc(Cc2ccccc2OC2CCNCC2)cc1`, the values for the pKi in test [1] and in test [2] were 7.4 and 8, respectively. This compound gave a Ki on Histamine H1 receptor of 15.8 nM.
In turn, `NCCCOc1ccccc1Cc1ccccc1` had a Ki on Histamine H1 receptor of 316 nM.
Same read-out and setting: to `CN1CCC(Oc2ccccc2)CC1` belongs 251 nM; to `c1ccc(Cc2ccccc2OCCCN2CCC2)cc1`, 7.94 nM.
Still for that read-out and setting: to `c1ccc(Cc2ccccc2OCCN2CCCC2)cc1` belongs 15.8 nM.
